ChEMBL document CHEMBL5385904, “Design, synthesis and biological evaluation of seco-DSP/DCK derivatives reversing P-glycoprotein-mediated paclitaxel resistance in A2780/T cells” (Eur J Med Chem, 2023)

What was measured:
A2780/Taxol [1] = assay: Cytotoxicity against human A2780/Taxol cells assessed survival rate at 10 uM incubated for 48 hrs by MTT assay; assay type: functional
A2780/Taxol [2] = assay: Reversal of multi-drug resistance in human A2780/Taxol cells incubated for 48 hrs by MTT assay; assay type: functional, cell-based
A2780/Taxol [3] = assay: Reversal of multidrug resistance in human A2780/Taxol Cells assessed as reversal fold of paclitaxel IC50 at 10 uM incubated for 48 hrs by MTT assay; assay type: functional

## COc1cc(CC(=O)NCc2c(OC(C)C)ccc3c(C)cc(=O)oc23)cc(OC)c1OC
A2780/Taxol [1]
  Cell survival rate: 90%
A2780/Taxol [2]
  IC50: 1580 nM
A2780/Taxol [3]
  fold change (FC): 2.8

## Cc1c(Cc2ccc(C(F)(F)F)cc2)c(=O)oc2c(COC(=O)/C=C/c3ccccc3)c(OC(C)C)ccc12
A2780/Taxol [1]
  Cell survival rate: 99%
A2780/Taxol [2]
  IC50: 401 nM
A2780/Taxol [3]
  fold change (FC): 11

## Cc1c(Cc2ccccc2)c(=O)oc2c(COC(=O)Cc3ccc(F)cc3)c(OC(C)C)ccc12
A2780/Taxol [1]
  Cell survival rate: 95%
A2780/Taxol [2]
  IC50: 67 nM
A2780/Taxol [3]
  fold change (FC): 66

## COc1ccccc1Cc1c(C)c2ccc(OC(C)C)c(COC(=O)Cc3cc(OC)c(OC)c(OC)c3)c2oc1=O
A2780/Taxol [1]
  Cell survival rate: 92%
A2780/Taxol [2]
  IC50: 69 nM
A2780/Taxol [3]
  fold change (FC): 64

## Cc1c(Cc2ccc(C#N)cc2)c(=O)oc2c(COC(=O)/C=C/c3ccccc3)c(OC(C)C)ccc12
A2780/Taxol [1]
  Cell survival rate: 91%
A2780/Taxol [2]
  IC50: 210 nM
A2780/Taxol [3]
  fold change (FC): 21

## Cc1c(Cc2ccccc2)c(=O)oc2c(COC(=O)c3ccccc3)c(OC(C)C)ccc12
A2780/Taxol [1]
  Cell survival rate: 81%
A2780/Taxol [2]
  IC50: 62 nM
A2780/Taxol [3]
  fold change (FC): 71

## COc1ccc(/C=C/C(=O)OCc2c(OC(C)C)ccc3c(C)c(Cc4ccc(OC)cc4)c(=O)oc23)cc1
A2780/Taxol [1]
  Cell survival rate: 83%
A2780/Taxol [2]
  IC50: 491 nM
A2780/Taxol [3]
  fold change (FC): 9

## COc1cc(CC(=O)OCc2c(OC(C)C)ccc3c(C)c(Cc4ccc(F)cc4)c(=O)oc23)cc(OC)c1OC
A2780/Taxol [1]
  Cell survival rate: 92%
A2780/Taxol [2]
  IC50: 21 nM
A2780/Taxol [3]
  fold change (FC): 206

## COc1ccc(Cc2c(C)c3ccc(OC(C)C)c(COC(=O)Cc4cc(OC)c(OC)c(OC)c4)c3oc2=O)cc1
A2780/Taxol [1]
  Cell survival rate: 94%
A2780/Taxol [2]
  IC50: 94 nM
A2780/Taxol [3]
  fold change (FC): 47

## COc1ccc(/C=C/C(=O)OCc2c(OC(C)C)ccc3c(C)c(Cc4ccccc4)c(=O)oc23)cc1
A2780/Taxol [1]
  Cell survival rate: 86%
A2780/Taxol [2]
  IC50: 233 nM
A2780/Taxol [3]
  fold change (FC): 19

## COc1cccc(Cc2c(C)c3ccc(OC(C)C)c(COC(=O)Cc4cc(OC)c(OC)c(OC)c4)c3oc2=O)c1
A2780/Taxol [1]
  Cell survival rate: 93%
A2780/Taxol [2]
  IC50: 73 nM
A2780/Taxol [3]
  fold change (FC): 60

## Cc1cc(=O)oc2c(C(=O)Nc3ccc(OC(F)(F)F)cc3)c(OC(C)C)ccc12
A2780/Taxol [1]
  Cell survival rate: 60%
A2780/Taxol [2]
  IC50: 315 nM
A2780/Taxol [3]
  fold change (FC): 14

## CCOc1ccc2c(C)c(Cc3ccccc3)c(=O)oc2c1COC(=O)/C=C/c1ccc(OC)cc1
A2780/Taxol [1]
  Cell survival rate: 74%
A2780/Taxol [2]
  IC50: 276 nM
A2780/Taxol [3]
  fold change (FC): 16

## CCOc1ccc2c(=O)cc(CC)oc2c1COC(=O)/C=C/c1ccc(OC)cc1
A2780/Taxol [1]
  Cell survival rate: 52%

## COc1cc(CC(=O)OCc2c(OC(C)C)ccc3c(C)c(C(C)C)c(=O)oc23)cc(OC)c1OC
A2780/Taxol [1]
  Cell survival rate: 98%
A2780/Taxol [2]
  IC50: 36 nM
A2780/Taxol [3]
  fold change (FC): 122

## Cc1cc(=O)oc2c(C(=O)Nc3ccccc3)c(OC(C)C)ccc12
A2780/Taxol [1]
  Cell survival rate: 92%
A2780/Taxol [2]
  IC50: 2760 nM
A2780/Taxol [3]
  fold change (FC): 1.6

## COc1cc(CC(=O)OCc2c(OC(C)C)ccc3c(C)c(Cc4cccc(F)c4)c(=O)oc23)cc(OC)c1OC
A2780/Taxol [1]
  Cell survival rate: 94%
A2780/Taxol [2]
  IC50: 86 nM
A2780/Taxol [3]
  fold change (FC): 51

## Cc1c(Cc2ccccc2)c(=O)oc2c(COC(=O)/C=C/c3ccccc3)c(OC(C)C)ccc12
A2780/Taxol [1]
  Cell survival rate: 95%
A2780/Taxol [2]
  IC50: 276 nM
A2780/Taxol [3]
  fold change (FC): 16

## COc1cc(CC(=O)OCc2c(OC(C)C)ccc3c(C)cc(=O)oc23)cc(OC)c1OC
A2780/Taxol [1]
  Cell survival rate: 94%
A2780/Taxol [2]
  IC50: 107 nM
A2780/Taxol [3]
  fold change (FC): 41

## COc1cc(CC(=O)OCc2c(OC(C)C)ccc3c(C)c(Cc4ccc(C#N)cc4)c(=O)oc23)cc(OC)c1OC
A2780/Taxol [1]
  Cell survival rate: 81%
A2780/Taxol [2]
  IC50: 88 nM
A2780/Taxol [3]
  fold change (FC): 50

## COc1ccc(/C=C/C(=O)OCc2c(OC(C)C)ccc3c(C)c(Cc4ccc(C(F)(F)F)cc4)c(=O)oc23)cc1
A2780/Taxol [1]
  Cell survival rate: 94%
A2780/Taxol [2]
  IC50: 631 nM
A2780/Taxol [3]
  fold change (FC): 7

## Cc1cc(=O)oc2c(CNC(=O)/C=C/c3ccccc3)c(OC(C)C)ccc12
A2780/Taxol [1]
  Cell survival rate: 87%
A2780/Taxol [2]
  IC50: 294 nM
A2780/Taxol [3]
  fold change (FC): 15

## CCc1cc(=O)c2ccc(OC(C)C)c(CNC(=O)/C=C/c3ccccc3)c2o1
A2780/Taxol [1]
  Cell survival rate: 74%
A2780/Taxol [2]
  IC50: 192 nM
A2780/Taxol [3]
  fold change (FC): 23

## COc1ccc(Cc2c(C)c3ccc(OC(C)C)c(COC(=O)/C=C/c4ccccc4)c3oc2=O)cc1
A2780/Taxol [1]
  Cell survival rate: 94%
A2780/Taxol [2]
  IC50: 3400 nM
A2780/Taxol [3]
  fold change (FC): 1.3

## CCOc1ccc2c(C)c(Cc3ccc(OC)cc3)c(=O)oc2c1COC(=O)/C=C/c1ccc(OC)cc1
A2780/Taxol [1]
  Cell survival rate: 90%
A2780/Taxol [2]
  IC50: 491 nM
A2780/Taxol [3]
  fold change (FC): 9

## COc1cc(NC(=O)c2c(OC(C)C)ccc3c(C)cc(=O)oc23)cc(OC)c1OC
A2780/Taxol [1]
  Cell survival rate: 88%
A2780/Taxol [2]
  IC50: 1590 nM
A2780/Taxol [3]
  fold change (FC): 2.8

## COc1cc(C(=O)OCc2c(OC(C)C)ccc3c(C)c(CCc4ccccc4)c(=O)oc23)cc(OC)c1OC
A2780/Taxol [1]
  Cell survival rate: 91%
A2780/Taxol [2]
  IC50: 31 nM
A2780/Taxol [3]
  fold change (FC): 140

## CCOc1ccc2c(C)c(Cc3ccc(F)cc3)c(=O)oc2c1COC(=O)/C=C/c1ccc(OC)cc1
A2780/Taxol [1]
  Cell survival rate: 92%
A2780/Taxol [2]
  IC50: 340 nM
A2780/Taxol [3]
  fold change (FC): 13

## COc1cc(CC(=O)OCc2c(OC(C)C)ccc3c(C)c(-c4ccccc4)c(=O)oc23)cc(OC)c1OC
A2780/Taxol [1]
  Cell survival rate: 97%
A2780/Taxol [2]
  IC50: 43 nM
A2780/Taxol [3]
  fold change (FC): 101

## CCc1c(C)c2ccc(OC(C)C)c(COC(=O)Cc3cc(OC)c(OC)c(OC)c3)c2oc1=O
A2780/Taxol [1]
  Cell survival rate: 93%
A2780/Taxol [2]
  IC50: 69 nM
A2780/Taxol [3]
  fold change (FC): 64

## COc1ccc(/C=C/C(=O)OCc2c(OC(C)C)ccc3c(C)c(Cc4ccc(F)cc4)c(=O)oc23)cc1
A2780/Taxol [1]
  Cell survival rate: 89%
A2780/Taxol [2]
  IC50: 491 nM
A2780/Taxol [3]
  fold change (FC): 9

## CCc1cc(=O)c2ccc(OC(C)C)c(CNC(=O)Cc3cc(OC)c(OC)c(OC)c3)c2o1
A2780/Taxol [1]
  Cell survival rate: 97%
A2780/Taxol [2]
  IC50: 20 nM
A2780/Taxol [3]
  fold change (FC): 224

## COc1cc(CC(=O)OCc2c(OC(C)C)ccc3c(C)c(C)c(=O)oc23)cc(OC)c1OC
A2780/Taxol [1]
  Cell survival rate: 94%
A2780/Taxol [2]
  IC50: 55 nM
A2780/Taxol [3]
  fold change (FC): 80

## COc1cc(CC(=O)OCc2c(OC(C)C)ccc3c(C)c(Cc4ccc(C(F)(F)F)cc4)c(=O)oc23)cc(OC)c1OC
A2780/Taxol [1]
  Cell survival rate: 81%
A2780/Taxol [2]
  IC50: 94 nM
A2780/Taxol [3]
  fold change (FC): 47

## CCc1cc(=O)c2ccc(OC(C)C)c(CNc3cc(OC)c(OC)c(OC)c3)c2o1
A2780/Taxol [1]
  Cell survival rate: 86%
A2780/Taxol [2]
  IC50: 143 nM
A2780/Taxol [3]
  fold change (FC): 31

## COc1cc(C(=O)OCc2c(OC(C)C)ccc3c(C)c(Cc4ccccc4)c(=O)oc23)cc(OC)c1OC
A2780/Taxol [1]
  Cell survival rate: 91%
A2780/Taxol [2]
  IC50: 85 nM
A2780/Taxol [3]
  fold change (FC): 52

## Cc1c(Cc2ccccc2)c(=O)oc2c(COC(=O)Cc3ccccc3)c(OC(C)C)ccc12
A2780/Taxol [1]
  Cell survival rate: 83%
A2780/Taxol [2]
  IC50: 76 nM
A2780/Taxol [3]
  fold change (FC): 58

## COc1cc(CC(=O)OCc2c(OC(C)C)ccc3c(C)c(CCc4ccccc4)c(=O)oc23)cc(OC)c1OC
A2780/Taxol [1]
  Cell survival rate: 93%
A2780/Taxol [2]
  IC50: 88 nM
A2780/Taxol [3]
  fold change (FC): 50

## COc1cc(CCC(=O)OCc2c(OC(C)C)ccc3c(C)c(Cc4ccccc4)c(=O)oc23)cc(OC)c1OC
A2780/Taxol [1]
  Cell survival rate: 90%
A2780/Taxol [2]
  IC50: 53 nM
A2780/Taxol [3]
  fold change (FC): 82

## CC(=O)O[C@H]1C(=O)[C@@]2(C)[C@H]([C@H](OC(=O)c3ccccc3)[C@]3(O)C[C@H](OC(=O)[C@H](O)[C@@H](NC(=O)c4ccccc4)c4ccccc4)C(C)=C1C3(C)C)[C@]1(OC(C)=O)CO[C@@H]1C[C@@H]2O [PACLITAXEL]
A2780/Taxol [2]
  IC50: 4420 nM
A2780/Taxol [3]
  fold change (FC): 1
